# From BindingDB's records for doi:10.1016/j.bmcl.2003.11.078 (Virginia Commonwealth University, 2004)
# Experiment: Binding affinity at imidazoline receptor I-1 of rat.
smiles,measurement,value
"Brc1cccc2c3c([nH]c12)CNCC3 [8-Bromo-2,3,4,9-tetrahydro-1H-beta-carboline]",Ki,3.74 µM
